The target of assay [1] is T1, cGMP-dependent protein kinase 1 (Homo sapiens) (UniProt Q13976).
T1 sequence (whole entry): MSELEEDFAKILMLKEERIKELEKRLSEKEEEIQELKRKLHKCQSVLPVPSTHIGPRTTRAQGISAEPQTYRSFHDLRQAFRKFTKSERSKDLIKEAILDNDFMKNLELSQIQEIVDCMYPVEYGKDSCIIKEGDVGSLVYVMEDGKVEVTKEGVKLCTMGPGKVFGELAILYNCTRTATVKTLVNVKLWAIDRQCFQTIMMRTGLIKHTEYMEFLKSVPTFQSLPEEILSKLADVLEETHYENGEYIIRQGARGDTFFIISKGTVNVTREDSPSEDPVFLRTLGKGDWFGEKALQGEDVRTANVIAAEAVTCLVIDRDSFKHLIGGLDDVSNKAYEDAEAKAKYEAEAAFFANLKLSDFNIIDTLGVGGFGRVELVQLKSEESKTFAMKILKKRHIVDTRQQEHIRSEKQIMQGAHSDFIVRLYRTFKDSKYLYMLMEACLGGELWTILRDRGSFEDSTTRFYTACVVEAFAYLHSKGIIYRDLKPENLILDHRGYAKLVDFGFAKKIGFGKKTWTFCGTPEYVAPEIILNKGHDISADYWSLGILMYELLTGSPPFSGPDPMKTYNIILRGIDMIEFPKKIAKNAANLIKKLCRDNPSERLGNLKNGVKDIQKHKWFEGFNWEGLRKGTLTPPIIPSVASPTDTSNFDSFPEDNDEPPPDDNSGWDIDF
Briefly: Inhibition of PKG1-beta (unknown origin) at 0.49 uM relative to control.

The target of assay [2] is Mitogen-activated protein kinase 3 (Homo sapiens) (UniProt P27361). The experiment in a line: Inhibition of Erk1 (unknown origin) at 0.49 uM relative to control.
In assay [3] the target is Tyrosine-protein kinase Fer (Homo sapiens) (UniProt P16591). The experiment in a line: Inhibition of Fer (unknown origin) at 0.49 uM relative to control.
Assay [4] has as its target Tyrosine-protein kinase Fes/Fps (Homo sapiens) (UniProt P07332). Briefly: Inhibition of FES (unknown origin) at 0.49 uM relative to control.
The subject of assay [5] is Fibroblast growth factor receptor 1 (Homo sapiens), P11362 [V561M]. Briefly: Inhibition of FGFR1 V561M mutant (unknown origin) at 0.49 uM relative to control.
Assay [6] addresses Receptor tyrosine-protein kinase erbB-4 (Homo sapiens) (UniProt Q15303). Briefly: Inhibition of HER4 (unknown origin) at 0.49 uM relative to control.
The target in assay [7] is Calcium/calmodulin-dependent protein kinase type II subunit gamma (Homo sapiens) (UniProt Q13555). The experiment in a line: Inhibition of CaMK2-gamma (unknown origin) at 0.49 uM relative to control.
Assay [8] has as its target MAP kinase-interacting serine/threonine-protein kinase 2 (Homo sapiens) (UniProt Q9HBH9). Briefly: Inhibition of MNK2 (unknown origin) at 0.49 uM relative to control.
In assay [9] the target is NUAK family SNF1-like kinase 1 (Homo sapiens) (UniProt O60285). The experiment in a line: Inhibition of NuaK1 (unknown origin) at 0.49 uM relative to control.
The target in assay [10] is Mitogen-activated protein kinase kinase kinase kinase 5 (Homo sapiens) (UniProt Q9Y4K4). Briefly: Inhibition of KHS1 (unknown origin) at 0.49 uM relative to control.
The species entered for the next assay is Homo sapiens. The experiment in a line: Inhibition of ACK (unknown origin) at 0.49 uM relative to control.
In assay [11] the target is Mitogen-activated protein kinase kinase kinase kinase 2 (Homo sapiens) (UniProt Q12851). The experiment in a line: Inhibition of GCK (unknown origin) at 0.49 uM relative to control.
The target of assay [12] is MAP/microtubule affinity-regulating kinase 3 (Homo sapiens) (UniProt P27448). The experiment in a line: Inhibition of c-TAK1 (unknown origin) at 0.49 uM relative to control.
The target in assay [13] is Ribosomal protein S6 kinase alpha-1 (Homo sapiens) (UniProt Q15418). The experiment in a line: Inhibition of RSK1 (unknown origin) at 0.45 uM relative to control.
The target in assay [14] is Death-associated protein kinase 1 (Homo sapiens) (UniProt P53355). Briefly: Inhibition of DAPK1 (unknown origin) at 0.45 uM relative to control.
In assay [15] the target is Mitogen-activated protein kinase 13 (Homo sapiens) (UniProt O15264). The experiment in a line: Inhibition of p38-delta (unknown origin) at 0.45 uM relative to control.
The target of assay [16] is Tyrosine-protein kinase JAK2 (Homo sapiens) (UniProt O60674). The experiment in a line: Inhibition of JAK2 (unknown origin) at 0.45 uM relative to control.
The target in assay [17] is Vascular endothelial growth factor receptor 2 (Homo sapiens) (UniProt P35968). Briefly: Inhibition of KDR (unknown origin) at 0.45 uM relative to control.
The target of assay [18] is Serine/threonine-protein kinase DCLK1 (Homo sapiens) (UniProt O15075). Briefly: Inhibition of DCAMKL1 (unknown origin) at 0.45 uM relative to control.
In assay [19] the target is Serine/threonine-protein kinase MARK2 (Homo sapiens) (UniProt Q7KZI7). Briefly: Inhibition of MARK2 (unknown origin) at 0.45 uM relative to control.
For assay [20], the target named is Serine/threonine-protein kinase 25 (Homo sapiens) (UniProt O00506). The experiment in a line: Inhibition of YSK (unknown origin) at 0.45 uM relative to control.
Assay [21] addresses Ribosomal protein S6 kinase alpha-5 (Homo sapiens) (UniProt O75582). The experiment in a line: Inhibition of MSK1 (unknown origin) at 0.078 uM relative to control.
Assay [22] has as its target Tyrosine-protein kinase Lyn (Homo sapiens) (UniProt P07948). The experiment in a line: Inhibition of LYN (unknown origin) at 0.078 uM relative to control.

One may read the inhibition as the relative decrease from the control value, in per cent.

Sequence of Calcium/calmodulin-dependent protein kinase type II subunit gamma (Homo sapiens) (Q13555 whole entry): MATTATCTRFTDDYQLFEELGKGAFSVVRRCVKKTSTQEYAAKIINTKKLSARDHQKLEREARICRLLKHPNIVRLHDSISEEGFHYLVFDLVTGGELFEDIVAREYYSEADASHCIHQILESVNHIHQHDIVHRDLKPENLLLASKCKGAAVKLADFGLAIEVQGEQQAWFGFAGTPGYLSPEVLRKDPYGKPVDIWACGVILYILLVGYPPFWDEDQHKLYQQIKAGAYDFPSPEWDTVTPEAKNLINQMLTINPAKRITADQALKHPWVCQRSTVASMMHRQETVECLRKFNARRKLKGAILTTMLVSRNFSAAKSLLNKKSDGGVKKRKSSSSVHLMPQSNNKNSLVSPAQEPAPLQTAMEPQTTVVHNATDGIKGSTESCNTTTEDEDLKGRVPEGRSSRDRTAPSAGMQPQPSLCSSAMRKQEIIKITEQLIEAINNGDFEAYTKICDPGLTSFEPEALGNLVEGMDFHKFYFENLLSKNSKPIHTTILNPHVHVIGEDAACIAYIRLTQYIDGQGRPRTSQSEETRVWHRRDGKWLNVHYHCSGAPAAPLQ
Sequence of Fibroblast growth factor receptor 1 (Homo sapiens), P11362 [V561M] (P11362 whole entry V561M): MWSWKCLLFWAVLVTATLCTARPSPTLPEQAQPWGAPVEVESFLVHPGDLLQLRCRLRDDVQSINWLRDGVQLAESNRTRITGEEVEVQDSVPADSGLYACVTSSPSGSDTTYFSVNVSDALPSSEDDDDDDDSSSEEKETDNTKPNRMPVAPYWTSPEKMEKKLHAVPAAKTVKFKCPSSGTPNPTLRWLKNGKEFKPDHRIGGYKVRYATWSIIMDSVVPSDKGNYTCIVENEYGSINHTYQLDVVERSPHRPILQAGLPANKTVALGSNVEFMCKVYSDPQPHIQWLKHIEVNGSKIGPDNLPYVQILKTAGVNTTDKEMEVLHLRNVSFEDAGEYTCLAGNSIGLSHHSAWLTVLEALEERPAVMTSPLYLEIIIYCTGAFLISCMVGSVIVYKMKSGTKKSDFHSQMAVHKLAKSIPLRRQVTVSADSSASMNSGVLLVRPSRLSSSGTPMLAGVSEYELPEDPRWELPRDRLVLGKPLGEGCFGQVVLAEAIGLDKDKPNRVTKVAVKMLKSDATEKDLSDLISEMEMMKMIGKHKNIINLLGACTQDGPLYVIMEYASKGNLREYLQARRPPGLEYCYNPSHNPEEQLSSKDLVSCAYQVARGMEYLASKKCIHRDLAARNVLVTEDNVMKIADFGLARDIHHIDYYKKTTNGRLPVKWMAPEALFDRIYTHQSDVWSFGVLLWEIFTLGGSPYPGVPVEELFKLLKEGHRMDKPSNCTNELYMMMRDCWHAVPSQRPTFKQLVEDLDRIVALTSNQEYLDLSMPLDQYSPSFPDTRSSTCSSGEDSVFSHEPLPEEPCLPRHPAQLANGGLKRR
Sequence of Tyrosine-protein kinase Lyn (Homo sapiens) (P07948 2-512 limits assumed): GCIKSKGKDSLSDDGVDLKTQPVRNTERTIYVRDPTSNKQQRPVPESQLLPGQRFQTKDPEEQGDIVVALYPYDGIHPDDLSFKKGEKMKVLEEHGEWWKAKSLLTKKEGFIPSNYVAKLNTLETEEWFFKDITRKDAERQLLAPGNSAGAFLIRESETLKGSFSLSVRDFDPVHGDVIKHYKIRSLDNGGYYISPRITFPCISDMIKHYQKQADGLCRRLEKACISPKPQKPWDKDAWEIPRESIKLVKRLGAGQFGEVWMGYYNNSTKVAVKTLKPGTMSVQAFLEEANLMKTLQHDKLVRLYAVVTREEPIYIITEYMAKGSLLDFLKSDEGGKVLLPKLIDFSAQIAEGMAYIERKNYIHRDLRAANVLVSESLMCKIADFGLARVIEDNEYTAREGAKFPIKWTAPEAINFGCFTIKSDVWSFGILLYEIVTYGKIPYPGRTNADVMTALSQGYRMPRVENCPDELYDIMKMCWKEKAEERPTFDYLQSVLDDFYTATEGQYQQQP
Sequence of Serine/threonine-protein kinase 25 (Homo sapiens) (O00506 whole entry, looked up): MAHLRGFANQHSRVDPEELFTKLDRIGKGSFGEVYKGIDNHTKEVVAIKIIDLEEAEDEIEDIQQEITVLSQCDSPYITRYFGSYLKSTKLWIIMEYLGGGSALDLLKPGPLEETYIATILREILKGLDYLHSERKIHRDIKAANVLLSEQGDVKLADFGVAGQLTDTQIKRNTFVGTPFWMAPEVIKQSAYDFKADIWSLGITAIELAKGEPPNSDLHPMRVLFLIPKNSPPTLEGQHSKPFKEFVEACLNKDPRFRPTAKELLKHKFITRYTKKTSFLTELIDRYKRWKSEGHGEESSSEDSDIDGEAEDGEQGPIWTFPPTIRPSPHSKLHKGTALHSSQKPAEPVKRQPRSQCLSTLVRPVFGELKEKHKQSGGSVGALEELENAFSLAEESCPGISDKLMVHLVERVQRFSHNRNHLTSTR
Sequence of NUAK family SNF1-like kinase 1 (Homo sapiens) (O60285 whole entry): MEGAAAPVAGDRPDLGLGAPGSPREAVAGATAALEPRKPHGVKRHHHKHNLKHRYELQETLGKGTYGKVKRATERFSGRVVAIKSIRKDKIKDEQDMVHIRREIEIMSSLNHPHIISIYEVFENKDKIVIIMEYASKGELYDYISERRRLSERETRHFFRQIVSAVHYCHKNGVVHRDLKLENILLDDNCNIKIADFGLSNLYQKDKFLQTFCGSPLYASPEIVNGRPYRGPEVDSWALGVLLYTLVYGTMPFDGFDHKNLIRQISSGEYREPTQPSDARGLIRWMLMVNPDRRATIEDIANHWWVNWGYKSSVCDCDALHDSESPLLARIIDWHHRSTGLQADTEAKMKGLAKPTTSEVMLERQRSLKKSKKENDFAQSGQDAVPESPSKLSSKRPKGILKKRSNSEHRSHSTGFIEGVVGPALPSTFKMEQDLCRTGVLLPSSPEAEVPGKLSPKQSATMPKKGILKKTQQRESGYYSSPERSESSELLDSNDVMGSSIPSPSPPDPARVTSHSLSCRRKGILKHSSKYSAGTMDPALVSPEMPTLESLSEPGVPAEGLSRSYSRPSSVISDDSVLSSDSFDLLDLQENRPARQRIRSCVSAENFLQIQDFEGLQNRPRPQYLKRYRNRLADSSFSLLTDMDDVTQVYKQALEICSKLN
Sequence of Serine/threonine-protein kinase MARK2 (Homo sapiens) (Q7KZI7 whole entry): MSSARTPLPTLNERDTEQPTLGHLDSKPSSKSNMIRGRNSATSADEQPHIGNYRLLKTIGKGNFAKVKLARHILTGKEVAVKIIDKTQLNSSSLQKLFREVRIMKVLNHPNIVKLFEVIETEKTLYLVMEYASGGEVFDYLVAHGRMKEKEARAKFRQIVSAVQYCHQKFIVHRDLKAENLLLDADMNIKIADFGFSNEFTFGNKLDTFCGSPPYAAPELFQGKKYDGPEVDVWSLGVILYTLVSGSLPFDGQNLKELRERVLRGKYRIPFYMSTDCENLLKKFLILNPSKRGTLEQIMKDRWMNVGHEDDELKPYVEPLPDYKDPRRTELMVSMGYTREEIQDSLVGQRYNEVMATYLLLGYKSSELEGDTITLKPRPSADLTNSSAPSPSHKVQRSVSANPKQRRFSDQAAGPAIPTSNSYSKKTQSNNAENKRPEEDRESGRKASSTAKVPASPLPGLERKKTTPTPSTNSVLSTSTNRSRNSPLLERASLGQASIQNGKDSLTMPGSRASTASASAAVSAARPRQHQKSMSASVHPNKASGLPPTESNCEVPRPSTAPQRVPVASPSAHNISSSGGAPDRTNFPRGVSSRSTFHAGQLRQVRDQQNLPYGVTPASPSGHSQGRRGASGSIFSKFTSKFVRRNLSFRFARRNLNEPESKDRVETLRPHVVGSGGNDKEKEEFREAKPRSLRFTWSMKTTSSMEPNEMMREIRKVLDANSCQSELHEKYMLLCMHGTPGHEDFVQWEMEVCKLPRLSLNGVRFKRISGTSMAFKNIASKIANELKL
Sequence of Mitogen-activated protein kinase 3 (Homo sapiens) (P27361 whole entry): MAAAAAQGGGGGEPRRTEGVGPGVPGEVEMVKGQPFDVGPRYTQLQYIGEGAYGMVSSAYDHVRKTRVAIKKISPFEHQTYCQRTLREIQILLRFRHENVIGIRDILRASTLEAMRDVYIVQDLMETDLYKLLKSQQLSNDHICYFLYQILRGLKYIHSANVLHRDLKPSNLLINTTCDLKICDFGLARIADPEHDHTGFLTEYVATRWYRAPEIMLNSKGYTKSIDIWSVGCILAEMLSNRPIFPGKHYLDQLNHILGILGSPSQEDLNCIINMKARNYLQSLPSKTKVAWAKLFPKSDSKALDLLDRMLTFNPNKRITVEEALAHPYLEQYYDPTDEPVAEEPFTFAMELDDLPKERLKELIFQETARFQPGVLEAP
Sequence of Tyrosine-protein kinase Fes/Fps (Homo sapiens) (P07332 whole entry): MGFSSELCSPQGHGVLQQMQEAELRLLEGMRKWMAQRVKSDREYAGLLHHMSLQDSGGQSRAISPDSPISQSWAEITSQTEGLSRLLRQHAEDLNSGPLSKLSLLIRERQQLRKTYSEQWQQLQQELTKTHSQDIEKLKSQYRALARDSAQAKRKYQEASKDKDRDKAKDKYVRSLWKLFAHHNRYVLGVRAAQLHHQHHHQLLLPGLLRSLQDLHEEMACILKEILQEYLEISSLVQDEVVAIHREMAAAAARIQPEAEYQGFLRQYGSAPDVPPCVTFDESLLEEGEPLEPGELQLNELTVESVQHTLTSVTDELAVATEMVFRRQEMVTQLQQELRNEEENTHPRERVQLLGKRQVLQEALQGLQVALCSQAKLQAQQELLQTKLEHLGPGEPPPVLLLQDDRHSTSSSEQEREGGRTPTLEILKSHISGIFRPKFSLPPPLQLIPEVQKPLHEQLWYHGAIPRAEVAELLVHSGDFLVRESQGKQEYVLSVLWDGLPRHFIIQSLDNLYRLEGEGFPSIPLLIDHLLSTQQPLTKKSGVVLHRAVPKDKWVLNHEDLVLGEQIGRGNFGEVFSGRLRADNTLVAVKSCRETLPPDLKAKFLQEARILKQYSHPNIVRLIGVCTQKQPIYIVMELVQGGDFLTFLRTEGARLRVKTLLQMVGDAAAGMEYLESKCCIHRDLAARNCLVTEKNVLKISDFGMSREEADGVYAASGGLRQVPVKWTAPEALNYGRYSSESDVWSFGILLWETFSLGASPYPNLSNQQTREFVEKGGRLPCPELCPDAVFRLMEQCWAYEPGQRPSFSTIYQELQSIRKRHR

With `Cc1[nH]nc(C2CC2)c1-c1ccc2c(NC(=O)C3CC3)noc2c1`, the inhibition in [1] was 2%; in assay [2], 3.7%; in [3], 0.3%; in assay [4], -5.3%; in assay [5] it was 3.7%; in [6] it was -10%. Also, the inhibition in assay [7] was 6%; in [8] it was -1.7%; in assay [9], 5.7%; in assay [10] it was 6.3%; in the assay listed under Homo sapiens it was 2.3%; in [11], 11.3%. Moreover, the inhibition in [12] is 6%.

Take `Cc1n[nH]c(C)c1-c1ccc2c(NC(=O)c3ccc(N4CCN(C)CC4)cc3)n[nH]c2c1`: the inhibition in assay [13] is 27.3%; in assay [14] it was -1.3%; in assay [15] it was 4.3%; in assay [16], 26%; in [17], 35.7%; in assay [18], 0%. Besides, the inhibition in assay [19] stood at 35%; in [20] it was 31%.

As for `COC(=O)Nc1noc2cc(-c3c(-c4ccccn4)n[nH]c3C)ccc12`, the results for the inhibition in assay [21] and in assay [22] were -5.7% and -0.3%, respectively.

For the origin of these results see ChEMBL document CHEMBL4052759, “Discovery of DS79182026: A potent orally active hepcidin production inhibitor” (Bioorg Med Chem Lett, 2017).
